The results in this text go back to US11723888B2, “Polymer conjugated thyrointegrin antagonists” (NanoPharmaceuticals, LLC, priority 2021, dated 2023).

For this assay, the target named is purified αvβ3 (Homo sapiens, UniProt P05106+P06756). Briefly: Binding affinity to purified αvβ3 (fibrinogen-coated plate, IC50). To be noted: purified αvβ3, fibrinogen-coated plates, 2 hours room temperature. How it is done: The binding affinity of exemplary compounds is show in FIG. 11A, including P-bi-TET and m-P-mono-TET (both having n=36). The method was as follows: The binding affinity of P-bi-TET and m-P-mono-TET to purified αvβ3 was measured using the method described by Li, W., et al., Pharmacokinetics, Biodistribution, and Anti-Angiogenesis Efficacy of Diamino Propane Tetraiodothyroacetic Acid-conjugated Biodegradable Polymeric Nanoparticle. Sci Rep, 2019. 9(1): p. 9006. Ninety-six polystyrene microtiter plates coated with fibrinogen and incubated at 4° C. overnight. The wells were blocked with 3% BSA for 2 hours at room temperature and were washed with buffer A (50 mM Tris/HCl, 100 mM NaCl, 1 mM CaCl2), 1 mM MgCl2, 1% BSA) for three times. Integrins αvβ3 and increasing concentrations of P-bi-TET or m-P-mono-TET were added and incubated for 2 hours at room temperature, and then wells were washed three times with buffer A and incubated with a streptavidin HRP conjugate (1:1000 in buffer A) for 1 hour at room temperature. Finally, wells were washed three times with buffer A and 100 μL peroxidase substrate TMB was added, and the reaction was terminated after 30 minutes with 50 μL of 450 nm stop solution for TMB. Absorbance was determined at 450 nm with a Microplate Reader (Bio-Rad, Hercules, Calif., USA). […]

What is called IC50 is the concentration needed to halve the response being measured. Low readings indicate inhibition by little substance, high ones a need for much substance.

purified αvβ3, sequence (P06756 31-889 limits assumed): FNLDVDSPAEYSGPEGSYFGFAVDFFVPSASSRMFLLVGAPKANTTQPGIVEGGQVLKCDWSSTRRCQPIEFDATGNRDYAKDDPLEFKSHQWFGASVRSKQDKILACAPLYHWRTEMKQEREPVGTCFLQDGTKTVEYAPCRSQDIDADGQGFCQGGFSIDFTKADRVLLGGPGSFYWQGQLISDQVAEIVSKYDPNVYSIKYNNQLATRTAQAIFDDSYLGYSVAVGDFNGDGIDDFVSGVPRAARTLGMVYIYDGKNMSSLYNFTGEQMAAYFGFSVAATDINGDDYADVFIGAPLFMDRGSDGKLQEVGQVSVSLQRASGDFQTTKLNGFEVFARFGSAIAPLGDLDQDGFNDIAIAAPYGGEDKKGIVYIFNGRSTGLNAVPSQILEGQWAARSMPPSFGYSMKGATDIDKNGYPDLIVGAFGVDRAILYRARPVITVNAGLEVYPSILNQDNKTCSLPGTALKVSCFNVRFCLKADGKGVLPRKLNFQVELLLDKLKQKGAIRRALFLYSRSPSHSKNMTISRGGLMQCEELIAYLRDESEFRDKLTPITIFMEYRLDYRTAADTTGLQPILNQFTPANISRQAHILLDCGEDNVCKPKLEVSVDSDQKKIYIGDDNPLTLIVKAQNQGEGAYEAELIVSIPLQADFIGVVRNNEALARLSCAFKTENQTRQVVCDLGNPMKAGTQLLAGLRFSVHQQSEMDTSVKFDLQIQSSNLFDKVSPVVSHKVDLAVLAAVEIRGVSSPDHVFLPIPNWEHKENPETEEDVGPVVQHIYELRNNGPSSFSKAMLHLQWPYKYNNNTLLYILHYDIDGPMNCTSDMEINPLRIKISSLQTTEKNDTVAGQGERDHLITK
purified αvβ3, sequence (P06756 891-1048 limits assumed): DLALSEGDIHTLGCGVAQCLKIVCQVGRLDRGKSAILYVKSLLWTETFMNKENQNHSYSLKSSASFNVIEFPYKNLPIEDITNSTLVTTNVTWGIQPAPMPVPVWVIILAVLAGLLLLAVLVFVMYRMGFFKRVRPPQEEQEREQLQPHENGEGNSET
purified αvβ3, sequence (P05106 27-788): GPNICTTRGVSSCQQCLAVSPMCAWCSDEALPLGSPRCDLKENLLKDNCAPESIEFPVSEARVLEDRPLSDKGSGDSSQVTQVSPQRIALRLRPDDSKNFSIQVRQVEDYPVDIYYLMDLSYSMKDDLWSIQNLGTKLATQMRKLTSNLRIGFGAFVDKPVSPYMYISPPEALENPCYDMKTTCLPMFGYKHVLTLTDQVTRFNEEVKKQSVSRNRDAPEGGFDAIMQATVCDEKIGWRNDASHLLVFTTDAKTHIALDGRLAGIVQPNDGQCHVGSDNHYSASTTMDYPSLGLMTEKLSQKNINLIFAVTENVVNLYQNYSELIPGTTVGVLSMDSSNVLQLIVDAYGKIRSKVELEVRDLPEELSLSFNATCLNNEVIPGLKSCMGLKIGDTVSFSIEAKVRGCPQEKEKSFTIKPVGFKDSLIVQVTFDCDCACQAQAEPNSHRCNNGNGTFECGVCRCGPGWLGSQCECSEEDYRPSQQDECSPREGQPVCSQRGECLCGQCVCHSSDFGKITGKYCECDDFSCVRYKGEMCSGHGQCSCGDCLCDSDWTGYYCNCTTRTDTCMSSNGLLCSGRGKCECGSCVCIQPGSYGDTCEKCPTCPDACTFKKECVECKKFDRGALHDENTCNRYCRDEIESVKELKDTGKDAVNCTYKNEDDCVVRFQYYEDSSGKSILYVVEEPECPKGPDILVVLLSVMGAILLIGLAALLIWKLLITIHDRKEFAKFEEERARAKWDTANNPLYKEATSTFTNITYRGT

In the case of `O=C(O)Cc1cc(I)c(Oc2cc(I)c(O)c(I)c2)c(I)c1` [Tetrac, tetraiodothyroacetic acid], the IC50 was determined as 105.4 ± 0.86 nM.
